Data taken from US20230250096A1, “SUBSTITUTED PHENYL-1H-PYRROLO[2,3-c] PYRIDINE DERIVATIVES” (Janssen Pharmaceutica NV, priority 2021, published 2023).
pIC50: −log10 of the molar value.

Assays:
[1] = test system: MEIS1 mRNA expression; experiment: MEIS1 mRNA expression assay (Quantigene Singleplex) in MOLM14 cells; format: cell-based, human; conditions: Homo sapiens, MOLM-14, 48 h, 48 hours incubation
Procedure: 2b) MEIS1 mRNA Expression Assay
MEIS1 mRNA expression upon treatment of compound was examined by Quantigene Singleplex assay (Thermo Fisher Scientific). This technology allows for direct quantification of mRNA targets using probes hybridizing to defined target sequences of interest and the signal is detected using a Multimode plate reader Envision (PerkinElmer). The MOLM14 cell line was used for this experiment. Cells were plated in 96-well plates at 3,750 cells/well in the presence of increasing concentrations of compounds. After incubation of 48 hours with compounds, cells were lysed in lysis buffer and incubated for 45 minutes at 55° C. Cell lysates were mixed with human MEIS specific capture probe or human RPL28 (Ribosomal Protein L28) specific probe as a normalization control, as well as blocking probes. Cell lysates were then transferred to the custom assay hybridization plate (Thermo Fisher Scientific) and incubated for 18 to 22 hours at 55° C. Subsequently, plates were washed to remove unbound materials followed by sequential addition of preamplifiers, amplifiers, and label probe. Signals (═gene counts) were measured with a Multimode plate reader Envision. IC50S were calculated by dose-response modelling using appropriate software. For all non-housekeeper genes response equal counts corrected for background and relative expression. For each sample, each test gene signal (background subtracted) was divided by the normalization gene signal (RPL28: background subtracted). Fold changes were calculated by dividing the normalized values for the treated samples by the normalized values for the DMSO treated sample. Fold changes of each target gene were used for the calculation of IC50S.

[2] = biological target: T1, menin/MLL (terbium chelate-labeled menin, FITC-MBM1 peptide) (Homo sapiens, UniProt O00255, T541A); experiment: Menin/MLL homogenous time-resolved fluorescence (HTRF) assay; format: binding; conditions: 30 min incubation
T1 construct: Menin (a.a 1-610-6xhis tag, 2.3 mg/mL in 20 mM Hepes)
T1 sequence (O00255 with tags, fused parts or gaps T541A): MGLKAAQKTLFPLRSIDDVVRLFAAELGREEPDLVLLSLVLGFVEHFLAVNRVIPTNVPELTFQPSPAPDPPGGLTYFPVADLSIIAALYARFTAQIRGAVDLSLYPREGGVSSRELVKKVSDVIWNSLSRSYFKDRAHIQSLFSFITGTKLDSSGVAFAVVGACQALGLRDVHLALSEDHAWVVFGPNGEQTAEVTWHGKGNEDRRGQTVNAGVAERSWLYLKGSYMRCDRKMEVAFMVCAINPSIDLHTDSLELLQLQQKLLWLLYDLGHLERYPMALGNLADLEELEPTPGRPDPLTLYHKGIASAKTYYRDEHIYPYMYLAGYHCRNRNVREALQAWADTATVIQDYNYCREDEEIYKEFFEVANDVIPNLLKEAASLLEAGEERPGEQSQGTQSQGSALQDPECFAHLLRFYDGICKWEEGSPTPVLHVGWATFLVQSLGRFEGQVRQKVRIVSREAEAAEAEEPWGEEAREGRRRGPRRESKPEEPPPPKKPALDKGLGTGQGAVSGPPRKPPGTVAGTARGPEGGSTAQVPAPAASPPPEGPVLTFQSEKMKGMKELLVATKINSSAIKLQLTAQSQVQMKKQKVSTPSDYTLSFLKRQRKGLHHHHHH
Procedure: 1) Menin/MLL Homogenous Time-Resolved Fluorescence (HTRF) Assay
To an untreated, white 384-well microtiter plate was added 40 nL 200× test compound in DMSO and 4 μL 2× terbium chelate-labeled menin (vide infra for preparation) in assay buffer (40 mM Tris HCl, pH 7.5, 50 mM NaCl. 1 mM DTT (dithiothreitol) and 0.05% Pluronic F-127). After incubation of test compound and terbium chelate-labeled menin for 30 min at ambient temperature, 4 μL 2×FITC-MBM1 peptide (FITC-β-alanine-[…]-NH2) (“FITC” means fluorescein isothiocyanate) in assay buffer was added, the microtiter plate centrifuged at 1000 rpm for 1 min and the assay mixtures incubated for 15 min at ambient temperature. The relative amount of menin FITC-MBM1 complex present in an assay mixture is determined by measuring the homogenous time-resolved fluorescence (HTRF) of the terbium/FITC donor/acceptor fluorphore pair using an EnVision microplate reader (ex. 337 nm/terbium em. 490 nm/FITC em. 520 nm) at ambient temperature. The degree of fluorescence resonance energy transfer (the HTRF value) is expressed as the ratio of the fluorescence emission intensities of the FITC and terbium fluorophores (F^em520 nm/F^em490 nm). The final concentrations of reagents in the binding assay are […] terbium chelate-labeled menin, 75 nM FITC-MBM1 peptide and 0.5% DMSO in assay buffer. Dose-response titrations of test compounds are conducted using an 11 point, four-fold serial dilution scheme, starting typically at 10 μM.
Compound potencies were determined by first calculating % inhibition at each compound concentration according to equation 1:
% inhibition=((HC−LC)−(HTRF^compound−LC))/(HC−LC))*100 (Eqn 1)
Where LC and HC are the HTRF values of the assay in the presence or absence of a saturating concentration of a compound that competes with FITC-MBM1 for binding to menin, and HTRF^compound is the measured HTRF value in the presence of the test compound. HC and LC HTRF values represent an average of at least 10 replicates per plate.
% inhibition=Bottom+(Top−Bottom)/(1+10^((log/C50−log[cmpd])*h)) (Eqn 2)
Where Bottom and Top are the lower and upper asymptotes of the dose-response curve, respectively, IC50 is the concentration of compound that yields 50% inhibition of signal and h is the Hill coefficient.
Preparation of Terbium cryptate labeling of Menin: Menin (a.a 1-610-6xhis tag, 2.3 mg/mL in 20 mM Hepes (2-[4-(2-Hydroxyethyl)-1-piperazinyl]ethane sulfonic acid), 80 mM NaCl, 5 mM DTT (Dithiothreitol), pH 7.5) was labeled with terbium cryptate as follows. 200 μg of Menin was buffer exchanged into 1×Hepes buffer. 6.67 μM Menin was incubated with 8-fold molar excess NHS (N-hydroxysuccinimide)-terbium cryptate for 40 minutes at room temperature. Half of the labeled protein was purified away from free label by running the reaction over a NAP5 column with elution buffer (0.1M Hepes, pH 7+0.1% BSA (bovine serum albumin)). The other half was eluted with 0.1 M phosphate buffered saline (PBS), pH7. 400 μl of eluent was collected for each, aliquoted and frozen at −80° C. The final concentration of terbium-labeled Menin protein was 115 μg/mL in Hepes buffer and 85 μg/mL in PBS buffer, respectively.

Compound	pIC50 [1]	pIC50 [2]
CC(=O)N1C[C@@H]2CN(CCC[C@@H](C(C)C)N3CC[C@H](Cc4cn(-c5ccc(F)cc5C(=O)N(C)C(C)C)c5cncc(Cl)c45)C3)C[C@H]2C1 (single isomer, unassigned) [Compound 19b]	6.89	10.19
CC[C@H]([C@H]1C[C@@H](N2C[C@H]3CN(C(C)=O)C[C@@H]3C2)C1)N1CC[C@H](Cc2cn(-c3ccc(F)cc3C(=O)N(C)C(C)C)c3cncc(Cl)c23)C1 (single isomer, unassigned) [Compound 27a]	> 8.39	10.92
CC[C@H]([C@H]1C[C@H](N2C[C@H]3CN(C(C)=O)C[C@@H]3C2)C1)N1CC[C@H](Cc2cn(-c3ccc(F)cc3C(=O)N(C)C(C)C)c3cncc(Cl)c23)C1 (single isomer, unassigned) [Compound 27b]	7.72	10.42
CC[C@@H]([C@H]1C[C@@H](N2C[C@H]3CN(C(C)=O)C[C@@H]3C2)C1)N1CC[C@H](Cc2cn(-c3ccc(F)cc3C(=O)N(C)C(C)C)c3cncc(Cl)c23)C1 (single isomer, unassigned) [Compound 27c]	7.40	10.42
CC[C@@H]([C@H]1C[C@H](N2C[C@H]3CN(C(C)=O)C[C@@H]3C2)C1)N1CC[C@H](Cc2cn(-c3ccc(F)cc3C(=O)N(C)C(C)C)c3cncc(Cl)c23)C1 (single isomer, unassigned) [Compound 27d]	7.10	10.89
CC(=O)N1C[C@@H]2CN([C@H]3C[C@@H](CN4CC[C@@H](Cc5cn(-c6ccc(F)cc6C(=O)N(C)C(C)C)c6cncc(C)c56)C4)C3)C[C@H]2C1 (single isomer, unassigned) [Compound 30]	< 6.00	~9.31
CC(=O)N1C[C@@H]2CN([C@H]3C[C@@H](CN4CC[C@H](Cc5cn(-c6ccc(F)cc6C(=O)N(C)C(C)C)c6cncc(C)c56)C4)C3)C[C@H]2C1 (single isomer, unassigned) [Compound 31]	~6.33	10.28
CC(=O)N1CCN([C@H]2C[C@@H]([C@H](C(C)C)N3CC(Cc4cn(-c5ccc(F)cc5C(=O)N(C)C(C)C)c5cncc(C)c45)C3)C2)CC1 (single isomer, unassigned) [Compound 32b]	< 6.00	9.33
Cc1cncc2c1c(CC1CN([C@@H](C(C)C)[C@H]3C[C@@H](N4CCN(S(C)(=O)=O)CC4)C3)C1)cn2-c1ccc(F)cc1C(=O)N(C)C(C)C (single isomer, unassigned) [Compound 34a]	7.80	10.72
Cc1cncc2c1c(CC1CN([C@@H](C(C)C)[C@H]3C[C@H](N4CCN(S(C)(=O)=O)CC4)C3)C1)cn2-c1ccc(F)cc1C(=O)N(C)C(C)C (single isomer, unassigned) [Compound 34b]	7.60	10.04
CC(=O)N1C[C@@H]2CN([C@H]3C[C@H]([C@@H](C(C)C)N4CC(Cc5cn(-c6ccc(F)cc6C(=O)N(C)C(C)C)c6cncc(Cl)c56)C4)C3)C[C@H]2C1 (single isomer, unassigned) [Compound 39b]	7.46	10.28
CC(=O)N1C[C@@H]2CN([C@H]3C[C@@H](C(C(C)C)N4CC(Cc5cn(-c6ccc(F)cc6C(=O)N(C)C(C)C)c6cncc(Cl)c56)C4)C3)C[C@H]2C1 (single isomer, unassigned) [Compound 40a]	~6.27	9.08
CC(=O)N1C[C@@H]2CN([C@H]3C[C@H](C(C(C)C)N4CC(Cc5cn(-c6ccc(F)cc6C(=O)N(C)C(C)C)c6cncc(Cl)c56)C4)C3)C[C@H]2C1 (single isomer, unassigned) [Compound 40b]	~6.17	9.74
Cc1cncc2c1c(C[C@@H]1CCN(CC3COC3)C1)cn2-c1ccc(F)cc1C(=O)N(C)C(C)C (single isomer, unassigned) [Compound 46]	7.04	10.33
